pKd: −log10 of the molar value. Entries after “also recorded” stand apart in the source; their conditions may differ. Where two headings read alike, the source gives them in different places.
Legend:
metI leader construct = type: biochemical, B. subtilis; conditions: 50 μM; in all instances (yitJ, yoaD, metK, metI leaders)
124 yitJ RNA = assay: In-line probing of 124 yitJ RNA; type: binding, B. subtilis
93 xpt RNA [1] = assay: In-line probing of 93 xpt RNA; type: binding, B. subtilis; conditions: for modulation of spontaneous cleavage pattern: 1 μM (adenine as much as 1 mM), 93 xpt and 201 xpt
[2] = system: 202-nucleotide mRNA leader (btuB); assay: Equilibrium dialysis with btuB mRNA leader; conditions: 5,000 pmoles unlabeled compound added to chamber b
btuB leader-lacZ fusion [3] = conditions: from Nou and Kadner; Lundrigan and Kadner; cited from earlier work
93 xpt RNA [4] = assay: Equilibrium dialysis with 93 xpt RNA; type: binding, B. subtilis; conditions: 500 nM analog
80 ydhL RNA = assay: In-line probing of 80 ydhL RNA; type: binding, B. subtilis
91 thiM RNA = assay: Equilibrium dialysis with thiM RNA using 3H-thiamine; type: binding, E. coli; conditions: 100 μM competitor (Example 2)
165 thiM RNA = type: binding, E. coli; conditions: for structure modulation: 40 μM each compound; for pKd: thiM RNA as reported in Example 3 (FIG. 13), read-out: apparent KD
Description: Specifically, TPP-dependent modulation of the spontaneous cleavage of RNA constructs was visualized by polyacrylamide gel electrophoresis (PAGE). […] Some RNAs were subjected to no reaction, partial digestion with alkali, or partial digestion with RNase T1 (G-specific cleavage) (see FIG. 6a). Composite plots of the fraction of RNA cleaved at specific sites versus the logarithm of the concentration of ligand (e.g. FIG. 7a) were generated to provide an estimate of the apparent KD. Fraction cleaved values were normalized relative to the highest and lowest cleavage values measured for each site.
NR, ^−OH and T1 represent RNAs subjected to no reaction, partial digestion with alkali, or partial digestion with RNase Tl (G-specific cleavage), respectively. Product bands representing cleavage after selected G residues are numbered and identified by filled arrowheads. The asterisk identifies modulation of RNA structure involving the Shine-Dalgarno (SD) sequence. Gel separations were analyzed using a phosphorimager (Molecular Dynamics) and quantitated using ImageQuant software.

btuB leader-lacZ fusion [5] = assay: btuB-lacZ expression assay; type: cell-based, E. coli; conditions: wild-type btuB leader
[6] = system: 202-nucleotide leader sequence of the btuB mRNA; type: binding, Escherichia coli; conditions: AdoCbl analogs of FIG. 4
Procedure: Precursor mRNA leader molecules were prepared by in vitro transcription from templates generated by PCR (see In vivo Expression Constructs and Assays section below) and 5′ ^32p-labeled using methods described previously (Soukup and Breaker, Allosteric nucleic acid catalysts. Curr. Opin. Struct. Biol. 10, […] (2000)). Approximately 20 nM of labeled RNA precursor was incubated as described in the brief description of FIG. 1. Accompanying digestions were carried out using reaction conditions similar to those described previously (Soukup and Breaker, Relationship between internucleotide linkage geometry and the stability of […]. RNA 5, 1308-1325 (1999)). […]
Metabolite-dependent conformational changes in the 202-nucleotide leader sequence of the btuB mRNA. […] The image was generated using a phosphorimager (Molecular Dynamics), and cleavage yields were quantitated by using ImageQuant software. […]
The btuB mRNA leader forms a saturable binding site for AdoCbl. […] 5′-^32P-labeled mRNA leader molecules were incubated, separated, and analyzed as described in the in the legend to FIG. 1A, and include identical control and marker lanes as indicated. […] Fraction cleaved values were normalized relative to the highest and lowest cleavage values measured for each location, including the values obtained upon incubation in the absence of AdoCbl. […]

179 lysC RNA [7] = type: binding, B. subtilis; conditions: 50 μM unlabeled compound, additional 10 hr
lysC 5′-UTR template = assay: In vitro transcription termination assay, lysC 5′-UTR; conditions: 10 mM compound
[8] = system: lysC 5′-UTR fused to lacZ reporter gene; type: cell-based, B. subtilis; conditions: wild-type construct, minimal medium plus 1 mM compound
179 lysC RNA [9] = assay: In-line probing of 179 lysC RNA; conditions: read-out: apparent KD; lysine analogs, data not shown, RNA construct not stated
[10] = system: 93 xpt RNA (C to U mutation at position 74); type: binding, B. subtilis
[11] = system: xpt-pbuX 5′-UTR fused to β-galactosidase reporter gene; assay: xpt-lacZ β-galactosidase reporter expression; type: cell-based, B. subtilis; conditions: wild-type xpt construct, six-hour incubation
[12] = system: wild-type ydhL riboswitch fused to β-galactosidase reporter gene; assay: ydhL-lacZ β-galactosidase reporter expression; type: cell-based, B. subtilis
[13] = system: xpt riboswitch variant with the C to U mutation at position 74, reporter construct; type: cell-based, B. subtilis
ribD RNA = assay: In-line probing of ribD RNA (RFN element); type: binding, B. subtilis
Procedure: To assess whether the RFN element of ribD was responsive to FMN, a fragment of the corresponding 5′-UTR was 5′-^32P labeled and incubated in the absence and presence of FMN, and the resulting fragments were analyzed by polyacrylamide gel electrophoresis (PAGE). […] To obtain values for apparent dissociation constant (apparent KD) for FMN, in-line probing assays were repeated with trace amounts of ribD RNA and increasing concentrations of FMN; the ligand concentration that correlates with half-maximal modulation of RNA structure should reflect the apparent KD.

[14] = translational fusion, 100 μM thiamine, minimal medium

Compound: Nc1ncnc2c1ncn2[C@@H]1O[C@H](CSC[C@H](N)C(=O)O)[C@@H](O)[C@H]1O [SAC]
- modulation of transcription termination (metI leader construct): little or no modulation of transcription termination
- discrimination relative to SAM (124 yitJ RNA): ~10,000 fold

Compound: O=c1[nH]c(=O)c2[nH]cnc2[nH]1 [xanthine]
- modulation of spontaneous cleavage pattern (93 xpt RNA [1]): induce modulation of spontaneous cleavage

Compound: O=c1[nH]cnc2nc[nH]c12 [hypoxanthine]
- modulation of spontaneous cleavage pattern (93 xpt RNA [1]): induce modulation of spontaneous cleavage

Compound: cyanocobalamin
- restoration of equal tritium distribution by excess unlabeled compound [2]: does not restore the ratio of tritium to unity
- regulatory effector for btuB expression (btuB leader-lacZ fusion [3]): incapable of serving as a regulatory effector

Compound: Nc1nc2c(ncn2[C@@H]2O[C@H](CO)[C@@H](O)[C@H]2O)c(=O)[nH]1 [guanosine]
- redistribution of 3H-guanine by excess unlabeled competitor (93 xpt RNA [4]): fails to restore equal distribution

Compound: Nc1nc(N)c2[nH]cnc2n1 [2,6-DAP, 2,6-diaminopurine]
- binding / structural modulation (80 ydhL RNA): measurable binding; also recorded: tightest-binding ligand

Compound: COc1nc(N)nc2nc[nH]c12 [O^6-methylguanine]
- loss in apparent KD relative to guanine (93 xpt RNA [1]): > 100 fold

Compound: CNc1ncnc2nc[nH]c12 [MA, 6-methylaminopurine]
- binding / structural modulation (80 ydhL RNA): measurable binding

Compound: Cc1ncc(C[n+]2csc(CCO)c2C)c(=O)[nH]1 [oxythiamine]
- reversal of 3H-thiamine shift by excess unlabeled compound (91 thiM RNA): does not significantly restore the tritium distribution to unity; also recorded: could not be reversed
- structure modulation (165 thiM RNA): fail to induce structure modulation

Compound: Cc1ncc(C[n+]2csc(CCO)c2C)c(N)n1 [thiamine]
- suppression of β-galactosidase activity (thiM-lacZ fusion; transcriptional fusion): not subject to suppression
- thiamine-dependent suppression of β-galactosidase activity (thiM-lacZ fusion; [14]): 18 fold
- reversal of 3H-thiamine shift by excess unlabeled compound (91 thiM RNA): could be eliminated
- structure modulation (165 thiM RNA): induce modulation
- pKd (165 thiM RNA): 4.40
- modulation of β-galactosidase activity (thiC-lacZ fusion; transcriptional fusion): 16 fold
- thiamine-dependent suppression of β-galactosidase activity (thiC-lacZ fusion; [14]): 110 fold

Compound: 13-epi-AdoCbl [compound 11]
- regulatory effector function on reporter gene inside cells (btuB leader-lacZ fusion [5]): inactive
- structural modulation (spontaneous cleavage at site 2, U68) [6]: inactive

Compound: c1ncc2[nH]cnc2n1 [P, purine]
- binding / structural modulation (80 ydhL RNA): measurable binding

Compound: NCCCC[C@@H](N)C(=O)O [D-lysine]
- restoration of equal tritium distribution by unlabeled competitor (179 lysC RNA [7]): do not restore equal distribution of tritium
- induction of transcription termination (lysC 5′-UTR template): Neither D-lysine nor L-ornithine induce termination

Compound: NCCSC[C@H](N)C(=O)O [thiosine, S-(2-aminoethyl)-L-cysteine]
- repression of β-galactosidase reporter expression [8]: represses β-galactosidase expression
- induction of transcription termination (lysC 5′-UTR template): cause an increase in transcription termination
- pKd (179 lysC RNA [9]): ~4.52

Compound: Nc1ncnc2nc[nH]c12 [adenine]
- structural modulation and binding in equilibrium dialysis [10]: exhibits structural modulation and binding activity
- pKd ([10]; read-out: apparent KD): ~7.00
- modulation of spontaneous cleavage pattern (93 xpt RNA [1]): does not alter the pattern of RNA cleavage products
- apparent KD poorer than for guanine (93 xpt RNA [1]; guanine riboswitch from B. subtilis xpt): at least 100,000 fold
- pKd (93 xpt RNA [1]; read-out: KD): < 3.52
- repression of reporter expression [11]: ~4 fold
- binding / structural modulation (80 ydhL RNA): specific for adenine
- pKd (80 ydhL RNA; half-maximal change at sites 1 through 4, read-out: apparent KD): ~6.52
- binding / structural modulation (80 ydhL RNA; listed as A): measurable binding
- increase in gene expression [12]: greater than 10 fold
- regulation of reporter expression [13]: no change in the putative protein-dependent control

Compound: Cc1cc2nc3c(=O)[nH]c(=O)nc-3n(C[C@H](O)[C@H](O)[C@H](O)CO)c2cc1C [riboflavin]
- discrimination relative to FMN (ribD RNA): approximately three orders of magnitude
- discrimination relative to FMN (ribD RNA; worded for FMN riboswitches): ~1,000 fold

Compound: Cc1ncc(C[n+]2csc(CCOP(=O)(O)O)c2C)c(N)n1 [TP, thiamine monophosphate]
- structure modulation (165 thiM RNA): induce modulation
- pKd (165 thiM RNA): 5.52

Compound: NCCC[C@H](N)C(=O)O [L-ornithine]
- restoration of equal tritium distribution by unlabeled competitor (179 lysC RNA [7]): do not restore equal distribution of tritium
- induction of transcription termination (lysC 5′-UTR template): Neither D-lysine nor L-ornithine induce termination

Compound: Nc1ncnc2nc(Cl)[nH]c12 [8-chloroadenine]
- binding / structural modulation (80 ydhL RNA): prevents ligand binding

Compound: Nc1nc(Br)c2[nH]cnc2n1 [2-amino-6-bromopurine]
- loss in apparent KD relative to guanine (93 xpt RNA [1]): ~1,000 fold

Compound: Nc1ncc2[nH]cnc2n1 [2-aminopurine]
- binding / structural modulation (80 ydhL RNA): measurable binding

Compound: Nc1ncnc2c1ncn2[C@@H]1O[C@H](CSCC[C@H](N)C(=O)O)[C@@H](O)[C@H]1O [SAH, S-adenosylhomocysteine]
- modulation of transcription termination (metI leader construct): little or no modulation of transcription termination
- discrimination relative to SAM (124 yitJ RNA): ~100 fold

— US8440810B2, “Riboswitches, methods for their use, and compositions for use with riboswitches” (Yale University, priority 2002, dated 2013)
